The values below are quoted from earlier work in patent publication EP2736496B1, “PHARMACEUTICAL COMPOSITION CONTAINING AN ANTIMUSCARINIC AGENT AND METHOD FOR THE PREPARATION THEREOF” (Pharmathen S.A., priority 2011, dated 2013).

SMILES strings stand for the structures. ≈ marks a conversion by molar mass, not a printed value.

For `Cc1ccc(O)c([C@H](CCN(C(C)C)C(C)C)c2ccccc2)c1` [Tolterodine, (R)-N, N-diisopropyl-3-(2-hydroxy-5-methylphenyl)-3-phenylpropylamine], the water solubility is 12 mg/mL (≈ 36.9 mM).
